What all share (test): relative viability (nuclei count vs DMSO), 5 days (fraction); higher = more cells survive
Compound in the assay “BGJ398 + AZD7762”: CCN1CCN(c2ccc(Nc3cc(N(C)C(=O)Nc4c(Cl)c(OC)cc(OC)c4Cl)ncn3)cc2)CC1 [BGJ398] + NC(=O)Nc1cc(-c2cccc(F)c2)sc1C(=O)N[C@H]1CCCNC1 [AZD7762] (partner 0.2 µM)
Put shortly: (§1)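 Medians of duplicate plates are given as relative viability. That measure is the nuclei count in treated wells divided by the count in vehicle wells. Counts were taken on 4× images of lung cancer cell lines in 1536-well plates, 5 days after pin-tool dosing the day after seeding with one drug alone or a fixed anchor-drug dose plus five library-drug doses (not always all listed) in √10 steps.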

Compound in the assay “BGJ398 + OSI-027”: CCN1CCN(c2ccc(Nc3cc(N(C)C(=O)Nc4c(Cl)c(OC)cc(OC)c4Cl)ncn3)cc2)CC1 [BGJ398] + COc1cccc2cc(-c3nc([C@H]4CC[C@H](C(=O)O)CC4)n4ncnc(N)c34)[nH]c12 [OSI-027] (partner 0.5 µM)
Put shortly:
as §1

Compound in assay [1]: C1=CC2=NC=CN=C2C=C1/C=C/3\C(=O)NC(=O)S3 + COc1cc2c(Oc3ccc(NC(=O)C4(C(=O)Nc5ccc(F)cc5)CC4)cc3F)ccnc2cc1OCCCN1CCOCC1 [Foretinib] (partner 0.25 µM)
The method in brief: as §1

Compound in assay [2]: C1=CC2=NC=CN=C2C=C1/C=C/3\C(=O)NC(=O)S3 + CS(=O)(=O)CCNCc1ccc(-c2ccc3ncnc(Nc4ccc(OCc5cccc(F)c5)c(Cl)c4)c3c2)o1 [Lapatinib] (partner 2 µM)
The method in brief: as §1

On to NCI-H2347, for which the relative viability was found to be 0.811 with BGJ398 + AZD7762 (first compound 0.01 µM); 0.801 with BGJ398 + AZD7762 (first compound 0.03162 µM); 0.837 with BGJ398 + AZD7762 (first compound 0.1 µM); 0.814 in the assay with BGJ398 + AZD7762 (first compound 0.3162 µM); 0.851 with BGJ398 + AZD7762 (first compound 1 µM); 0.228 in the assay with BGJ398 + OSI-027 (first compound 0.01 µM). The relative viability in the assay with BGJ398 + OSI-027 (first compound 0.03162 µM) was 0.557; in the assay with BGJ398 + OSI-027 (first compound 0.1 µM), 0.447; in the assay with BGJ398 + OSI-027 (first compound 0.3162 µM) it was 0.413; with BGJ398 + OSI-027 (first compound 1 µM) it was 0.434; in assay [1] (first compound 0.02 µM), 0.843; in assay [1] (first compound 0.06325 µM), 0.77. Besides, the relative viability turned out to be 0.948 in assay [1] (first compound 0.2 µM); 0.86 in assay [1] (first compound 0.6325 µM); 0.634 in assay [1] (first compound 2 µM); 0.886 in assay [2] (first compound 0.02 µM); 0.88 in assay [2] (first compound 0.06325 µM); 1 in assay [2] (first compound 0.2 µM). The relative viability in assay [2] (first compound 0.6325 µM) was 0.79; in assay [2] (first compound 2 µM) it was 0.852.

On to NCI-H2405, for which the relative viability amounted to 0.84 in the assay with BGJ398 + AZD7762 (first compound 0.01 µM); 0.857 with BGJ398 + AZD7762 (first compound 0.03162 µM); 0.781 in the assay with BGJ398 + AZD7762 (first compound 0.1 µM); 0.757 in the assay with BGJ398 + AZD7762 (first compound 0.3162 µM); 0.656 in the assay with BGJ398 + AZD7762 (first compound 1 µM); 0.644 in the assay with BGJ398 + OSI-027 (first compound 0.01 µM). For the same cell line, the relative viability with BGJ398 + OSI-027 (first compound 0.03162 µM) was determined as 0.724; with BGJ398 + OSI-027 (first compound 0.1 µM) it was 0.664; with BGJ398 + OSI-027 (first compound 0.3162 µM), 0.666; with BGJ398 + OSI-027 (first compound 1 µM), 0.655; in assay [1] (first compound 0.02 µM) it was 1.06; in assay [1] (first compound 0.06325 µM), 1.12. In addition, the relative viability is 1.13 in assay [1] (first compound 0.2 µM); 1.03 in assay [1] (first compound 0.6325 µM); 0.838 in assay [1] (first compound 2 µM); 1.24 in assay [2] (first compound 0.02 µM); 1.39 in assay [2] (first compound 0.06325 µM); 1.13 in assay [2] (first compound 0.2 µM). For the same cell line, the relative viability was 1.11 in assay [2] (first compound 0.6325 µM) and 0.323 in assay [2] (first compound 2 µM).

Take NCI-H3122: the relative viability stood at 0.51 in the assay with BGJ398 + AZD7762 (first compound 0.01 µM); 1 in the assay with BGJ398 + AZD7762 (first compound 0.03162 µM); 1.04 with BGJ398 + AZD7762 (first compound 0.1 µM); 1.02 in the assay with BGJ398 + AZD7762 (first compound 0.3162 µM); 1.17 with BGJ398 + AZD7762 (first compound 1 µM); 0.91 with BGJ398 + OSI-027 (first compound 0.01 µM). In addition, the relative viability with BGJ398 + OSI-027 (first compound 0.03162 µM) came out at 1; in the assay with BGJ398 + OSI-027 (first compound 0.1 µM), 0.941; with BGJ398 + OSI-027 (first compound 0.3162 µM), 1; in the assay with BGJ398 + OSI-027 (first compound 1 µM), 1.05; in assay [1] (first compound 0.02 µM) it was 0.963; in assay [1] (first compound 0.06325 µM), 0.985. In addition, the relative viability was found to be 0.917 in assay [1] (first compound 0.2 µM); 0.867 in assay [1] (first compound 0.6325 µM); 0.96 in assay [1] (first compound 2 µM); 1.09 in assay [2] (first compound 0.02 µM); 1.03 in assay [2] (first compound 0.06325 µM); 1.04 in assay [2] (first compound 0.2 µM). Moreover, the relative viability was found to be 0.988 in assay [2] (first compound 0.6325 µM) and 0.972 in assay [2] (first compound 2 µM).

Regarding PC-3 [JPC-3], the relative viability was determined as 0.853 with BGJ398 + AZD7762 (first compound 0.01 µM); 0.781 with BGJ398 + AZD7762 (first compound 0.1 µM); 0.837 with BGJ398 + AZD7762 (first compound 1 µM); 0.738 with BGJ398 + OSI-027 (first compound 0.01 µM); 0.76 in the assay with BGJ398 + OSI-027 (first compound 0.1 µM); 0.578 with BGJ398 + OSI-027 (first compound 0.3162 µM). Also, the relative viability with BGJ398 + OSI-027 (first compound 1 µM) was 0.676; in assay [1] (first compound 0.02 µM), 0.997; in assay [1] (first compound 0.06325 µM) it was 1.14; in assay [1] (first compound 0.2 µM), 1.02; in assay [1] (first compound 0.6325 µM), 1; in assay [1] (first compound 2 µM), 1.06. The relative viability in assay [2] (first compound 0.02 µM) came to 0.481; in assay [2] (first compound 0.06325 µM) it was 0.559; in assay [2] (first compound 0.2 µM), 0.454; in assay [2] (first compound 0.6325 µM), 0.439; in assay [2] (first compound 2 µM), 0.441.

In the case of PC-14, the relative viability in the assay with BGJ398 + AZD7762 (first compound 0.01 µM) was 0.403; in the assay with BGJ398 + AZD7762 (first compound 0.1 µM), 0.387; in the assay with BGJ398 + AZD7762 (first compound 0.3162 µM) it was 0.176; with BGJ398 + AZD7762 (first compound 1 µM), 0.249; with BGJ398 + OSI-027 (first compound 0.01 µM) it was 0.781; in the assay with BGJ398 + OSI-027 (first compound 0.03162 µM), 0.16. In addition, the relative viability in the assay with BGJ398 + OSI-027 (first compound 0.1 µM) was determined as 1.07; with BGJ398 + OSI-027 (first compound 0.3162 µM), 0.464; with BGJ398 + OSI-027 (first compound 1 µM), 1.07; in assay [1] (first compound 0.02 µM) it was 0.934; in assay [1] (first compound 0.06325 µM), 1.07; in assay [1] (first compound 0.2 µM), 0.961. Besides, the relative viability in assay [1] (first compound 0.6325 µM) was determined as 1.01; in assay [1] (first compound 2 µM), 0.893; in assay [2] (first compound 0.02 µM), 0.326; in assay [2] (first compound 0.06325 µM) it was 0.316; in assay [2] (first compound 0.2 µM) it was 0.284; in assay [2] (first compound 0.6325 µM), 0.348. In assay [2] (first compound 2 µM), the relative viability stood at 0.24.

RERF-LC-KJ: the relative viability in the assay with BGJ398 + AZD7762 (first compound 0.01 µM) amounted to 0.858; in the assay with BGJ398 + AZD7762 (first compound 0.03162 µM) it was 1; with BGJ398 + AZD7762 (first compound 0.1 µM), 0.987; with BGJ398 + AZD7762 (first compound 0.3162 µM), 0.819; in the assay with BGJ398 + AZD7762 (first compound 1 µM), 0.295; with BGJ398 + OSI-027 (first compound 0.01 µM), 0.587. For the same cell line, the relative viability was 0.576 in the assay with BGJ398 + OSI-027 (first compound 0.03162 µM); 0.654 with BGJ398 + OSI-027 (first compound 0.1 µM); 0.573 with BGJ398 + OSI-027 (first compound 0.3162 µM); 0.506 in the assay with BGJ398 + OSI-027 (first compound 1 µM); 0.831 in assay [1] (first compound 0.02 µM); 0.825 in assay [1] (first compound 0.06325 µM). In addition, the relative viability in assay [1] (first compound 0.2 µM) turned out to be 0.874; in assay [1] (first compound 0.6325 µM), 0.814; in assay [1] (first compound 2 µM), 0.695; in assay [2] (first compound 0.02 µM), 0.729; in assay [2] (first compound 0.06325 µM), 0.923; in assay [2] (first compound 0.2 µM), 0.842. The relative viability turned out to be 0.759 in assay [2] (first compound 0.6325 µM) and 0.689 in assay [2] (first compound 2 µM).

For the origin of these results see the supplement of paper PMC10307832.
